Experimental data taken from patent publication EP4745135A1 (Gluetacs Therapeutics (Shanghai) Co., Ltd., priority 2023, dated 2025).

Tests used:
[1] = target: T1, CK1α (Homo sapiens, UniProt P48729+Q96SW2); experiment: Western blot, degradation of substrate protein in hPBMCs; type: cell-based
T1 construct: effects of the compounds of the present disclosure on the expression of target proteins in cells; endogenous in cells; host or cells: human PBMCs (Milecell Biotechnologies)

[2] = target: T2, IKZF2 (Homo sapiens, UniProt Q96SW2+Q9UKS7); experiment: as above; type: cell-based
T2 construct: effects of the compounds of the present disclosure on the expression of target proteins in cells; endogenous in cells; host or cells: human PBMCs (Milecell Biotechnologies)
T2 sequence (Q9UKS7 whole entry): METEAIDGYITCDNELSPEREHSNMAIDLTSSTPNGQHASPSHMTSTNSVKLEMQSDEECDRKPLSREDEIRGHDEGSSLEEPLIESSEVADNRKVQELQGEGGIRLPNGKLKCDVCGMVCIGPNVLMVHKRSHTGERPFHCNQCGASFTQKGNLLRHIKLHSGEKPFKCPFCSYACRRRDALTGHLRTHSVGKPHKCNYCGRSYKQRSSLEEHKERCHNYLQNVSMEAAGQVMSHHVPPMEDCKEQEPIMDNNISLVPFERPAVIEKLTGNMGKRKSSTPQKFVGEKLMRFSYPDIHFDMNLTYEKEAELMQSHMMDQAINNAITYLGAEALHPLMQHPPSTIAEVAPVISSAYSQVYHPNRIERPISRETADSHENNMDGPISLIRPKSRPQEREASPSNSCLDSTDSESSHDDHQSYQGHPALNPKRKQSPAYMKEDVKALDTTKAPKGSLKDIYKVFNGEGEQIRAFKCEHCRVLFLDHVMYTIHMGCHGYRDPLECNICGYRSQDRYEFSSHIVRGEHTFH
T2 sequence (Q96SW2 whole entry): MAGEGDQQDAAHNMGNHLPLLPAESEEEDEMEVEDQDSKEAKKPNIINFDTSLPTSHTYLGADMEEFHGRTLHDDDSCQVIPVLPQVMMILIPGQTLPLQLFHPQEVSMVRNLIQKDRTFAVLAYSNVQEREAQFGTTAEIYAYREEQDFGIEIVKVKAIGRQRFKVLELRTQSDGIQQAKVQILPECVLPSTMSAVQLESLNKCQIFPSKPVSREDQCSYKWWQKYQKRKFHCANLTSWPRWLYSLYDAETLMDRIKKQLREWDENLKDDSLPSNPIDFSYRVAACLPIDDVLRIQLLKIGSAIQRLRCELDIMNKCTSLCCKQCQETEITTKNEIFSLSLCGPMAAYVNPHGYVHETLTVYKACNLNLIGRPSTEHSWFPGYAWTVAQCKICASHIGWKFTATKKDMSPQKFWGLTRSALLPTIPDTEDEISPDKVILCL
T2 sequence (Q16531 whole entry partner): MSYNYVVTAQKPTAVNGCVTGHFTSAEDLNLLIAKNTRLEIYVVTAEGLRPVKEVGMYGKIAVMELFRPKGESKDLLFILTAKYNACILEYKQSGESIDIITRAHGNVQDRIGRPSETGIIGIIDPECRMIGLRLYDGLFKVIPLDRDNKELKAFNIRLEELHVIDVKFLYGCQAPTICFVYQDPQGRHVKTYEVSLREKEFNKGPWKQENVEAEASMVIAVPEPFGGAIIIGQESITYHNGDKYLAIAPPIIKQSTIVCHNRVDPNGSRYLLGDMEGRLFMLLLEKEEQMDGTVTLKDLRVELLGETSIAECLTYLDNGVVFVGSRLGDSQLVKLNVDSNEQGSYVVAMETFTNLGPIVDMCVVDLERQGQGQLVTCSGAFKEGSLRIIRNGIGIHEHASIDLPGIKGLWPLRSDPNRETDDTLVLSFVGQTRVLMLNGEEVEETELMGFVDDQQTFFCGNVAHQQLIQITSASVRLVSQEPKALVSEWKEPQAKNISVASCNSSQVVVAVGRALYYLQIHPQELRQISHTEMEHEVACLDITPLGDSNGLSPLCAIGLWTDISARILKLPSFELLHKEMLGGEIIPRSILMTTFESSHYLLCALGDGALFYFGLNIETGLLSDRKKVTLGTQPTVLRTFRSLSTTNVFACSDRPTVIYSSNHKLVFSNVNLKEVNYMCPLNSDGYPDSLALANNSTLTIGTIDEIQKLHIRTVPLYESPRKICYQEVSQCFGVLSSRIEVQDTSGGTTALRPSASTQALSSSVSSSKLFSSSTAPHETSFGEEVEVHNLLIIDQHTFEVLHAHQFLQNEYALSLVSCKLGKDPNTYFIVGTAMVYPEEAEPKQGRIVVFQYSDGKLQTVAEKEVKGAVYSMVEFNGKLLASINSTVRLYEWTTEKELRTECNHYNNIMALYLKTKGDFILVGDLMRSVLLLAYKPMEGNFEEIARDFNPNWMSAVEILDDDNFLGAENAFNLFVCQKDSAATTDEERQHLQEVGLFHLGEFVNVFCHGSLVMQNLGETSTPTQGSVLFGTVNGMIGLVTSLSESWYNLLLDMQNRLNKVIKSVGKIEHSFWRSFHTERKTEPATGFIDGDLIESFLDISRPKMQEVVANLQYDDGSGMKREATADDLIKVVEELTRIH

[3] = target: T3, IKZF3 (Homo sapiens, UniProt Q96SW2+Q9UKT9); experiment: as above; type: cell-based
T3 construct: effects of the compounds of the present disclosure on the expression of target proteins in cells; endogenous in cells; host or cells: human PBMCs (Milecell Biotechnologies)
T3 sequence (Q9UKT9 whole entry): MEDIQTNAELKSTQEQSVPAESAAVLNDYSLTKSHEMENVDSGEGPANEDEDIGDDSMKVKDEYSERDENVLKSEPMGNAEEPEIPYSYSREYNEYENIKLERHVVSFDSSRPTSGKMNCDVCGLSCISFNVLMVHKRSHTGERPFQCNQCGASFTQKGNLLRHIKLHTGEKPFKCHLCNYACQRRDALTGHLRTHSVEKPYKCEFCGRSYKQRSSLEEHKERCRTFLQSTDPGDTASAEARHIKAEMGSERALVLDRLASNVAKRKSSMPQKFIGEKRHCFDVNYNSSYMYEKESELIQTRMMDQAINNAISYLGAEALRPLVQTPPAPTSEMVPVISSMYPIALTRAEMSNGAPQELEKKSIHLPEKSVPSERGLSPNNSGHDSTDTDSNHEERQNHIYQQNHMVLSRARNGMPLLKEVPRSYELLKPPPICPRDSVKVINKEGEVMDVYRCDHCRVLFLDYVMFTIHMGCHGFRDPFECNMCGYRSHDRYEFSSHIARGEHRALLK
T3 sequence (Q96SW2 whole entry): as the sequence (Q96SW2 whole entry) above
T3 sequence (Q16531 whole entry partner): as the sequence (Q16531 whole entry partner) above

[4] = target: T4, IKZF1 (Homo sapiens, UniProt Q13422+Q96SW2); experiment: as above; type: cell-based
T4 construct: effects of the compounds of the present disclosure on the expression of target proteins in cells; endogenous in cells; host or cells: human PBMCs (Milecell Biotechnologies)
T4 sequence (Q13422 whole entry): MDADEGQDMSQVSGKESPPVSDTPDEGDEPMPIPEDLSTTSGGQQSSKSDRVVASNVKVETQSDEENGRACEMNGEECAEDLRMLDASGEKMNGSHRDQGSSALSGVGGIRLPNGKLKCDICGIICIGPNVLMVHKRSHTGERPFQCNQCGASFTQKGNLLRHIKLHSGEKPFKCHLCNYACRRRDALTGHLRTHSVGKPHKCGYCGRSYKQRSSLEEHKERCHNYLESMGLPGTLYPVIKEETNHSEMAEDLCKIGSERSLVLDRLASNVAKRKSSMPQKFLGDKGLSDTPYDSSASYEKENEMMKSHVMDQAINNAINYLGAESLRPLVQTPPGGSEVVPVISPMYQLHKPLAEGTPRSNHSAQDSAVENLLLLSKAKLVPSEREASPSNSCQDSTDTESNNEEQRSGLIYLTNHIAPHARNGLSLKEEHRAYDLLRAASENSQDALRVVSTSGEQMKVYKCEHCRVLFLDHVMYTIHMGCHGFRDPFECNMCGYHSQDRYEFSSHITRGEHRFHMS
T4 sequence (Q96SW2 whole entry): as the sequence (Q96SW2 whole entry) above
T4 sequence (Q16531 whole entry partner): as the sequence (Q16531 whole entry partner) above

[5] = target: T5, WEE1 (Homo sapiens, UniProt P30291+Q96SW2); experiment: as above; type: cell-based
T5 construct: effects of the compounds of the present disclosure on the expression of target proteins in cells; endogenous in cells; host or cells: human PBMCs (Milecell Biotechnologies)
T5 sequence (P30291 whole entry): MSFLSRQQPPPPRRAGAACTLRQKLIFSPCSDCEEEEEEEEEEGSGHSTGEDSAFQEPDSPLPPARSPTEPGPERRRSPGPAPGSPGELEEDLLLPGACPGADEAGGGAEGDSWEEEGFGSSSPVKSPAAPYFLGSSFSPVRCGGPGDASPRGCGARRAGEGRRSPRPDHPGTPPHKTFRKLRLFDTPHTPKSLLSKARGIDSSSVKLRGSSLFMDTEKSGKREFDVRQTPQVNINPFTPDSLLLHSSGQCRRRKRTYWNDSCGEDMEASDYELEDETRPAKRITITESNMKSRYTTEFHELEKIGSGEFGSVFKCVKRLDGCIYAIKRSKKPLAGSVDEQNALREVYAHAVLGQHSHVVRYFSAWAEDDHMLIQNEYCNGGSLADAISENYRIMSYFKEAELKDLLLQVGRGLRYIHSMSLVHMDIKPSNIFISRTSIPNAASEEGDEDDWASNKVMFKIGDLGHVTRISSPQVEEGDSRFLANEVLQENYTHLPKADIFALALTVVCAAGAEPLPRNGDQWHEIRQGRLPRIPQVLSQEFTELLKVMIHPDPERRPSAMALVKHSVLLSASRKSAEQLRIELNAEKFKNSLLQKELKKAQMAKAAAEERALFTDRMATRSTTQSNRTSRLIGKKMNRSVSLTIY
T5 sequence (Q96SW2 whole entry): as the sequence (Q96SW2 whole entry) above
T5 sequence (Q16531 whole entry partner): as the sequence (Q16531 whole entry partner) above

[6] = target: T6, human Cereblon WT GST-tagged protein (Homo sapiens, UniProt Q96SW2); experiment: CRBN-binding affinity, HTRF (CEREBLON BINDING kit); conditions: for inhibition at 0.5 µM: read-out: Inhibition Rate at 0.5 µM (%); for inhibition at 2 µM: read-out: Inhibition Rate at 2 µM (%)
T6 construct: purchased CISBIO 64BDCRBNPEH
T6 sequence (Q96SW2 whole entry): as the sequence (Q96SW2 whole entry) above

[7] = test system: Human myeloid monocytic leukemia cell (MV-4-11); experiment: Tumor cell proliferation inhibition (CellTiter-Meiluncell luminescent cell viability assay); conditions: MV4-11, 96 h; for inhibition at 0.01 µM: read-out: Inhibition Rate at 10 nM (%); for inhibition at 0.5 µM: read-out: Inhibition Rate at 500 nM (%)
Method: The tumor cells used herein were cultured in a cell culture medium listed in table 2 at 37°C in an incubator with 5% CO2. Prior to experimentation, all cell lines used were correctly identified by STR profiling, and tested negative for mycoplasma contamination using a mycoplasma detection kit through routine screenings.
The IC50 values of the compounds of the present disclosure (including the compounds in Table 1 and Examples) were determined using the CellTiter-Meiluncell Luminescent Cell Viability Assay Kit from Dalian Meilun Biotech Co., Ltd. The detailed procedure is as follows: Tumor cells were seeded in 96-well cell culture plates at the densities specified in Table 3. On the following day, the test compounds of the present disclosure were subjected to serial dilution. The dilution can be performed according to one of the following two methods: • (1) The first dilution method: The test compounds of the present disclosure (including the compounds in Table 1 and Examples) were subjected to 5-fold serial dilutions starting from a highest concentration of 2000 µM, resulting in a total of 9 concentrations from high to low (2000, 400, 80, 16, 3.2, 0.64, 0.128, 0.0256, 0.00512 µM). Subsequently, 0.5 µL of the test compound dilution was transferred into the 96-well plate containing the cells, with each well containing 100 µL of cell culture medium. […] Into the 96-well plate, the diluted test compounds and corresponding detection reagents were added, resulting in final test compound concentrations of 500 nM and 10 nM, respectively. The experimental procedure is described below using the diluted 2 µM test compound as an example.
0.5 µL of the aforementioned diluted compound of the present disclosure (including the compounds in Table 1 and Examples) was added to the seeded cells in 100 µL of medium, yielding a final test compound concentration of 10 nM. After the cells were treated with the compounds of the present disclosure for a specified period, the cell viability assay reagent was added to the culture medium according to the kit's instructions to determine cell viability. […] All controls were treated using the same procedure as the compounds of the present disclosure. The growth inhibition curves for the compounds of the present disclosure were plotted using Prism GraphPad software, and the IC50 values were calculated therefrom.

[8] = test system: GSPT1; experiment: Western blot, degradation of substrate protein in hPBMCs; type: cell-based, Human
[9] = Western blot, 24 hours of compound treatment, compounds tested at 50 nM and 500 nM (concentration for the table not stated)
[10] = 24 hours treatment, compounds at 50 nM and 500 nM (concentration behind the class not stated)

T1 sequence (P48729 whole entry): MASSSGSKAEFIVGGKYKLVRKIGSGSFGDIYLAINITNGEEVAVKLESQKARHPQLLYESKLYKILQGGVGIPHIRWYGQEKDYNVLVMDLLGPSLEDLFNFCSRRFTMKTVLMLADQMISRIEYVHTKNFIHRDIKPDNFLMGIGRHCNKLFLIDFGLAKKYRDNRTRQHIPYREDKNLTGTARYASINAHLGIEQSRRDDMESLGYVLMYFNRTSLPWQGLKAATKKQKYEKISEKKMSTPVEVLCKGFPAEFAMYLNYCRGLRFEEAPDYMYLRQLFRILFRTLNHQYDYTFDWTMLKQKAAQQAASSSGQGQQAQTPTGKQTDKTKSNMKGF
T1 sequence (Q96SW2 whole entry): as the sequence (Q96SW2 whole entry) above
T1 sequence (Q16531 whole entry partner): as the sequence (Q16531 whole entry partner) above

inhibition at 0.5 µM [6] [%] | inhibition at 2 µM [6] [%] | Structure (SMILES) | CK1α substrate protein remaining % [1, 9] | IKZF2 substrate protein remaining % [2, 9] | IKZF3 substrate protein remaining % [3, 9] | IKZF 1 substrate protein remaining % [4, 9] | Wee1 substrate protein remaining % [5, 9] | inhibition at 0.01 µM [7] [%] | inhibition at 0.5 µM [7] [%] | GSPT1 substrate protein remaining % [8, 9] | CK1α substrate protein remaining % [1, 10] | IKZF2 substrate protein remaining % [2, 10] | IKZF3 substrate protein remaining % [3, 10] | IKZF 1 substrate protein remaining % [4, 10] | Wee1 substrate protein remaining % [5, 10] | GSPT1 substrate protein remaining % [8, 10]
30 to 40 | 60 to 80 | O=C1CCC(N2Cc3c(CN4CCN(c5ccc(C(F)(F)F)cc5)CC4)cccc3C2=S)C(=O)N1 (stereo not drawn) [GT-08262, 3-(1-thioxo-4-((4-(4-(trifluoromethyl)phenyl)piperazin-1-yl)methyl)isoindolin-2-yl)piperidine-2,6-dione] | A (0% ≤ substrate protein remaining % ≤ 80%) | B (80%< substrate protein remaining %≤ 100%) | B (80%< substrate protein remaining %≤ 100%) | B (80%< substrate protein remaining %≤ 100%) | A (0% ≤ substrate protein remaining % ≤ 80%) | 25 to 30 | 40 to 60 | A (0% ≤ substrate protein remaining % ≤ 80%) |  |  |  |  |  | 
30 to 40 | 60 to 80 | CC1(C)CCC(CN2CCN(Cc3cccc4c3CN(C3CCC(=O)NC3=O)C4=S)CC2)=C(c2ccc(Cl)cc2)C1 (stereo not drawn) [GT-08303, 3-(4-((4-((4'-chloro-5,5-dimethyl-3,4,5,6-tetrahydro-[1,1'-biphenyl]-2-yl)methyl)piperazin-1-yl)methyl)-1-thioxoisoindolin-2-yl)piperidine-2,6-dione] |  |  |  |  |  | 40 to 60 | 40 to 60 |  |  |  |  |  |  | 
30 to 40 | 60 to 80 | O=C1CCC(N2Cc3c(CN4CCC(c5ccco5)CC4)cccc3C2=S)C(=O)N1 (stereo not drawn) [GT-08310, 3-(4-((4-(furan-2-yl)piperidin-1-yl)methyl)-1-thioxoisoindolin-2-yl)piperidine-2,6-dione] |  |  |  |  |  | 40 to 60 | 60 to 80 |  | B (80%< substrate protein remaining %≤ 100%) | B (80%< substrate protein remaining %≤ 100%) | B (80%< substrate protein remaining %≤ 100%) | B (80%< substrate protein remaining %≤ 100%) | A (0% ≤ substrate protein remaining % ≤ 80%) | B (80%< substrate protein remaining %≤ 100%)
40 to 53 | 60 to 80 | Cc1ccsc1C1CCN(Cc2cccc3c2CN(C2CCC(=O)NC2=O)C3=S)CC1 (stereo not drawn) [GT-08314, 3-(4-((4-(3-methylthiophen-2-yl)piperidin-1-yl)methyl)-1-thioxoisoindolin-2-yl)piperidine-2,6-dione] |  |  |  |  |  | 40 to 60 | 60 to 80 |  | B (80%< substrate protein remaining %≤ 100%) | B (80%< substrate protein remaining %≤ 100%) | B (80%< substrate protein remaining %≤ 100%) | B (80%< substrate protein remaining %≤ 100%) | A (0% ≤ substrate protein remaining % ≤ 80%) | B (80%< substrate protein remaining %≤ 100%)
40 to 53 | 60 to 80 | Cc1cc(C2CCN(Cc3cccc4c3CN(C3CCC(=O)NC3=O)C4=S)CC2)cs1 (stereo not drawn) [GT-08316, 3-(4-((4-(5-methylthiophen-3-yl)piperidin-1-yl)methyl)-1-thioxoisoindolin-2-yl)piperidine-2,6-dione] |  |  |  |  |  | 18 to 25 | 40 to 60 |  | B (80%< substrate protein remaining %≤ 100%) | B (80%< substrate protein remaining %≤ 100%) | B (80%< substrate protein remaining %≤ 100%) | B (80%< substrate protein remaining %≤ 100%) | A (0% ≤ substrate protein remaining % ≤ 80%) | B (80%< substrate protein remaining %≤ 100%)
60 to 80 | 80 to 100 | O=C1CCC(N2Cc3cc(CN4CCC(c5ccnc(F)c5F)CC4)ccc3C2=S)C(=O)N1 (stereo not drawn) [GT-08473, 3-(5-((4-(2,3-difluoropyridin-4-yl)piperidin-1-yl)methyl)-1-thioxoisoindolin-2-yl)piperidine-2,6-dione] |  |  |  |  |  | 40 to 60 | 40 to 60 |  |  |  |  |  |  | 
40 to 53 | 60 to 80 | O=C1CCC(N2Cc3c(CN4CCN(c5ccc(Cl)cc5Cl)CC4)cccc3C2=S)C(=O)N1 (stereo not drawn) [GT-08500, 3-(4-((4-(2,4-dichlorophenyl)piperazin-1-yl)methyl)-1-thioxoisoindolin-2-yl)piperidine-2,6-dione] | B (80%< substrate protein remaining %≤ 100%) | B (80%< substrate protein remaining %≤ 100%) | B (80%< substrate protein remaining %≤ 100%) | B (80%< substrate protein remaining %≤ 100%) | A (0% ≤ substrate protein remaining % ≤ 80%) | 30 to 40 | 40 to 60 | A (0% ≤ substrate protein remaining % ≤ 80%) |  |  |  |  |  | 
 |  | O=C1CCC(N2Cc3c(CN4CCC(c5ccccc5)CC4)cccc3C2=S)C(=O)N1 (stereo not drawn) [GT-08506, 3-(4-((4-phenylpiperidin-1-yl)methyl)-1-thioxoisoindolin-2-yl)piperidine-2,6-dione] | B (80%< substrate protein remaining %≤ 100%) | A (0% ≤ substrate protein remaining % ≤ 80%) | A (0% ≤ substrate protein remaining % ≤ 80%) | B (80%< substrate protein remaining %≤ 100%) | A (0% ≤ substrate protein remaining % ≤ 80%) | 30 to 40 | 40 to 60 | A (0% ≤ substrate protein remaining % ≤ 80%) |  |  |  |  |  | 
60 to 80 | 80 to 100 | O=C1CCC(N2Cc3c(CN4CCN(c5ncnc6ccsc56)CC4)cccc3C2=S)C(=O)N1 (stereo not drawn) [GT-08970, 3-(4-((4-(thieno[3,2-d]pyrimidin-4-yl)piperazin-1-yl)methyl)-1-thioxoisoindolin-2-yl)piperidine-2,6-dione] |  |  |  |  |  | 18 to 25 | 40 to 60 |  | B (80%< substrate protein remaining %≤ 100%) | B (80%< substrate protein remaining %≤ 100%) | B (80%< substrate protein remaining %≤ 100%) | B (80%< substrate protein remaining %≤ 100%) | A (0% ≤ substrate protein remaining % ≤ 80%) | B (80%< substrate protein remaining %≤ 100%)
60 to 80 | 80 to 100 | O=C1CCC(N2Cc3cc(CN4CCN(c5ncc(Cl)cc5Cl)CC4)ccc3C2=S)C(=O)N1 (stereo not drawn) [GT-09226, 3-(5-((4-(3,5-dichloropyridin-2-yl)piperazin-1-yl)methyl)-1-thioxoisoindolin-2-yl)piperidine-2,6-dione] |  |  |  |  |  | 30 to 40 | 40 to 60 |  |  |  |  |  |  | 
60 to 80 | 80 to 100 | O=C1CCC(N2Cc3cc(CN4CCN(c5cccnc5)CC4)ccc3C2=S)C(=O)N1 (stereo not drawn) [GT-09229, 3-(5-((4-(pyridin-3-yl)piperazin-1-yl)methyl)-1-thioxoisoindolin-2-yl)piperidine-2,6-dione] |  |  |  |  |  | 40 to 60 | 40 to 60 |  |  |  |  |  |  | 
60 to 80 | 80 to 100 | O=C1CCC(N2Cc3cc(CN4CCN(c5ccnc(F)c5F)CC4)ccc3C2=S)C(=O)N1 (stereo not drawn) [GT-09242, 3-(5-((4-(2,3-difluoropyridin-4-yl)piperazin-1-yl)methyl)-1-thioxoisoindolin-2-yl)piperidine-2,6-dione] |  |  |  |  |  | 60 to 80 | 30 to 40 |  |  |  |  |  |  | 
80 to 100 | 80 to 100 | Cc1csc2ncnc(N3CCN(Cc4ccc5c(c4)CN(C4CCC(=O)NC4=O)C5=S)CC3)c12 (stereo not drawn) [GT-09281, 3-(5-((4-(5-methylthieno[2,3-d]pyrimidin-4-yl)piperazin-1-yl)methyl)-1-thioxoisoindolin-2-yl)piperidine-2,6-dione] |  |  |  |  |  | 25 to 30 | 40 to 60 |  |  |  |  |  |  | 

Structure (SMILES) | inhibition at 0.5 µM [6] [%] | inhibition at 2 µM [6] [%] | CK1α substrate protein remaining % [1, 9] | IKZF2 substrate protein remaining % [2, 9] | IKZF3 substrate protein remaining % [3, 9] | IKZF 1 substrate protein remaining % [4, 9] | Wee1 substrate protein remaining % [5, 9] | inhibition at 0.01 µM [7] [%] | inhibition at 0.5 µM [7] [%] | GSPT1 substrate protein remaining % [8, 9] | CK1α substrate protein remaining % [1, 10] | IKZF2 substrate protein remaining % [2, 10] | IKZF3 substrate protein remaining % [3, 10] | IKZF 1 substrate protein remaining % [4, 10] | Wee1 substrate protein remaining % [5, 10] | GSPT1 substrate protein remaining % [8, 10]
O=C1CCC(N2Cc3c(CN4CCC(c5c[nH]c6cc(F)ccc56)CC4)cccc3C2=S)C(=O)N1 (stereo not drawn) [GT-08492, 3-(4-((4-(6-fluoro-1H-indol-3-yl)piperidin-1-yl)methyl)-1-thioxoisoindolin-2-yl)piperidine-2,6-dione] | 60 to 80 | 80 to 100 | B (80%< substrate protein remaining %≤ 100%) | B (80%< substrate protein remaining %≤ 100%) | B (80%< substrate protein remaining %≤ 100%) | B (80%< substrate protein remaining %≤ 100%) | A (0% ≤ substrate protein remaining % ≤ 80%) | 30 to 40 | 40 to 60 | B (80%< substrate protein remaining %≤ 100%) |  |  |  |  |  | 
